Assay: mn = molality of the nth substance listed, in mol/kg
Settings: 101 kPa, Liquid; for speed of sound: Sing-around technique in a fixed-path interferometer; for mass density: Vibrating tube method

CCCCn1cc[n+](C)c1.[Cl-] [1-butyl-3-methylimidazolium chloride] + O
Settings | mass density, 288.15 K [kg/m3] | mass density, 293.15 K [kg/m3] | mass density, 298.15 K [kg/m3] | mass density, 303.15 K [kg/m3] | mass density, 308.15 K [kg/m3] | speed of sound, 288.15 K [m/s] | speed of sound, 293.15 K [m/s] | speed of sound, 298.15 K [m/s] | speed of sound, 303.15 K [m/s] | speed of sound, 308.15 K [m/s]
m1 = 0.0519 | 999.802 | 998.874 | 997.684 | 996.264 | 994.611 | 1474.6 | 1489.9 | 1503.6 | 1515.5 | 1525.8
m1 = 0.1011 | 1000.45 | 999.477 | 998.265 | 996.836 | 995.146 | 1482 | 1496.7 | 1509.9 | 1521.4 | 1531.3
m1 = 0.1548 | 1001.14 | 1000.16 | 998.918 | 997.452 | 995.754 | 1489.8 | 1504 | 1516.6 | 1527.7 | 1537.2
m1 = 0.2011 | 1001.77 | 1000.76 | 999.494 | 998.007 | 996.292 | 1496.5 | 1510.1 | 1522.3 | 1533 | 1542.3
m1 = 0.2583 | 1002.56 | 1001.52 | 1000.2 | 998.699 | 996.957 | 1504.3 | 1517.8 | 1529.2 | 1539.7 | 1548.4
m1 = 0.311 | 1003.25 | 1002.18 | 1000.86 | 999.317 | 997.577 | 1511.4 | 1524.5 | 1535.6 | 1545.6 | 1553.9
m1 = 0.3619 | 1003.98 | 1002.88 | 1001.53 | 999.989 | 998.169 | 1518.1 | 1531 | 1541.4 | 1551.3 | 1559.3
m1 = 0.4064 | 1004.59 | 1003.46 | 1002.09 | 1000.54 | 998.737 | 1524 | 1536.4 | 1546.8 | 1556.2 | 1563.9
m1 = 0.451 | 1005.23 | 1004.07 | 1002.67 | 1001.08 | 999.294 | 1530 | 1542.1 | 1551.6 | 1561 | 1568.4
m1 = 0.5069 | 1005.99 | 1004.8 | 1003.4 | 1001.79 | 999.991 | 1536.9 | 1549 | 1557.9 | 1567.1 | 1574

CC(=O)[O-].CCCCn1cc[n+](C)c1 [1-butyl-3-methylimidazolium acetate] + O
Settings | mass density, 288.15 K [kg/m3] | mass density, 293.15 K [kg/m3] | mass density, 298.15 K [kg/m3] | mass density, 303.15 K [kg/m3] | mass density, 308.15 K [kg/m3] | speed of sound, 288.15 K [m/s] | speed of sound, 293.15 K [m/s] | speed of sound, 298.15 K [m/s] | speed of sound, 303.15 K [m/s] | speed of sound, 308.15 K [m/s]
m1 = 0.0534 | 999.93 | 999 | 997.824 | 996.406 | 994.772 | 1476.3 | 1492 | 1505.6 | 1517.5 | 1527.3
m1 = 0.104 | 1000.71 | 999.755 | 998.548 | 997.105 | 995.451 | 1485.4 | 1500.6 | 1513.6 | 1525.2 | 1534.3
m1 = 0.1535 | 1001.45 | 1000.47 | 999.237 | 997.775 | 996.101 | 1494.2 | 1508.8 | 1521.3 | 1532.3 | 1541
m1 = 0.209 | 1002.31 | 1001.29 | 1000.03 | 998.535 | 996.836 | 1504 | 1517.9 | 1529.8 | 1540 | 1548.3
m1 = 0.2498 | 1002.95 | 1001.91 | 1000.62 | 999.11 | 997.391 | 1511 | 1524.4 | 1535.9 | 1545.7 | 1553.8
m1 = 0.2997 | 1003.66 | 1002.59 | 1001.27 | 999.737 | 997.998 | 1519.5 | 1532 | 1543 | 1552.5 | 1560.3
m1 = 0.35 | 1004.51 | 1003.4 | 1002.05 | 1000.49 | 998.725 | 1528.1 | 1540 | 1550 | 1559 | 1566.8
m1 = 0.4035 | 1005.33 | 1004.19 | 1002.81 | 1001.22 | 999.427 | 1536.9 | 1548 | 1557.6 | 1566 | 1573.3
m1 = 0.457 | 1006.2 | 1005.02 | 1003.61 | 1001.98 | 1000.17 | 1545.8 | 1556 | 1564.8 | 1572.9 | 1579.9
m1 = 0.5036 | 1006.93 | 1005.72 | 1004.28 | 1002.63 | 1000.79 | 1553.4 | 1562.8 | 1571 | 1578.5 | 1585.6

From the NIST ThermoML archive (doi:10.1016/j.jct.2012.03.025)
